# Earlier results, collected in patent publication US20110053979A1, “PYRIDINE DERIVATIVES USED TO TREAT OREXIN RELATED DISORDERS” (priority 2008, published 2011).
# Assays:
# rats [1] = tested on: rats
# rats [2] = tested on: rats; remark: listed apart in the source
# rats [3] = conditions: central administration at the onset of the normal sleep period, rat
# freely-feeding rats = conditions: central administration, 4 hour time period
Compound,effect on high-fat pellet self-administration (rats [1]),effect on hedonic eating (rats [2]),effect on arousal (rats [3]),increase of food intake over control rats receiving vehicle (freely-feeding rats)
Cc1nc2ccc(NC(=O)Nc3ccnc4cccnc34)cc2o1 [SB334867],attenuated high-fat pellet self-administration,potently reduced hedonic eating,–,–
"orexin-A: polypeptide ligand for the orexin-1 receptor; an agonist of the orexin receptors (QPLPDCCRQKTCSCRLYELLHGAGNHAAGILTL; Orexin-A; UniProt O43612 34-66, looked up)",–,–,dose-related increase in arousal,approximately four-fold
